Data on five compounds can be found in US5922582A, “Indole alkaloid type compound 0089-D” (HIGETA SHOYU Co., Ltd., priority 1998, dated 1999).

Data set [1] relates to Nocardia brasiliensis IFM 0089. Briefly: Susceptibility to antibiotics of the producing strain. It is filed as cell-based. The method, then: The present strain was cultured in a medium (brain heart infusion containing 2% glucose) at 250 rpm at 30° C. for 72 hours with shaking, and the cells grown in the medium was harvested by centrifugation (3000 rpm×10 minutes) and washed twice with distilled water. Further, the cells were washed with ethanol and then dried under vacuum to give the dried cells. The amino acid composition, sugar composition and lipid composition of the cell wall of this dried cells were examined on the basis of Bergey's Manual of Determinative Bacteriology, 9th ed., Williams, Baltimore, 1993. Meso-diaminopimelic acid was detected in the amino acid analysis, and arabinose and galactose were detected in the sugar analysis. The presence of mycolic acid was confirmed from the result of the lipid analysis, and its type was Nocardia type. Isoprenoid quinone, i.e., a cell lipid component was confirmed to contain MK-8 (H4) cycle as a major component. The present strain was identified as Nocardia brasiliensis, further from its ability to assimilate casein, hypoxanthine and tyrosine and from its production pattern of acid from sugar and its susceptibility pattern to antimicrobial agents as shown in Table 4 (Mikami & Yazawa, Susceptibility pattern of pathogenic Nocardia to some selected antimicrobial agents and their usefulness in the identification work in a clinical laboratory: Bull. JFCC "Bulltein of the Japan Federation for Culture Collections", 5: 89-95, 1989).

In data set [2] the test system is L1210 cells. Kind of data set: Cytotoxicity on cultured tumor cell line L1210 (MTT). It is filed as cell-based. As to conditions: Mus musculus, L1210, 72 hours, read-out: IC50 (growth of tumor cells). The method, then: (§1) Cytotoxicity of compound 0089-D on cultured tumor cell lines, P388, adriamycin resistant P388 (P388/ADR), L1210 and KB was examined in the following manner.
(§2) L1210 was suspended in RPMI1640 medium, P388 and P388/ADR in RPMI1640 medium containing 20 μM of 2-mercaptoethanol, and KB in Dulbecco's MEM medium (any medium contained 10% fetal bovine serum) respectively whereby cell suspension (5.6×10^4 cells/ml) were prepared. The test sample was dissolved in methanol and diluted serially with each medium to give solutions containing the test sample at various concentrations. […] 72 hours thereafter, cell growth was measured by the following calorimetric assay method using 3-(4,5-dimethyl-2-thiazolyl)-2,5-diphenyl-2H-tetrazolium bromide (MTT).
(§3) That is, 20 μl of 2 mg/ml MTT solution was added to each well and the cells were incubated for 4 hours at 37° C. Thereafter, 50 μl of 50% dimethylformamide solution containing 20% sodium dodecyl sulfate was added to each well to dissolve the formed violet formazan crystal, and its absorbance at 570 nm was measured in a microplate reader (immunoreader) and used as an indicator of the growth. […]
(§4) Degree of inhibition=[1--(absorbance in the presence of test sample)/(absorbance in the absence of test sample)]×100

In data set [3] the test system is P388 cells. Kind of data set: Cytotoxicity on cultured tumor cell line P388 (MTT). As to conditions: Mus musculus, P388, 72 hours, read-out: IC50 (growth of tumor cells). It is filed as cell-based. As to the method: as §1, §2, §3, §4
The test system of data set [4] is adriamycin-resistant P388 (P388/ADR) cells. Kind of data set: Cytotoxicity on adriamycin resistant P388 (P388/ADR) (MTT). It is filed as cell-based. As to conditions: 72 hours, read-out: IC50 (growth of tumor cells). The method, then: as §1, §2, §3, §4
The subject of data set [5] is KB cells. Briefly: Cytotoxicity on cultured tumor cell line KB (MTT). It is filed as cell-based. As to conditions: Homo sapiens, 72 hours, read-out: IC50 (growth of tumor cells). The method, then:
as §1, §2, §3, §4

Data set [6] relates to cultured tumor cells (P388, P388/ADR, L1210 and KB). Kind of data set: Cytotoxicity on the cultured tumor cells, overall (MTT). It counts as cell-based. As to conditions: in words. The method, then:
as §1, §2, §3, §4

For data set [7], the system named is Bacillus subtilis PCI189. Briefly: Antimicrobial activity, MIC. To be noted: Bacillus subtilis PCI189, Muller Hinton broth, 37° C., 24 hours. It is filed as cell-based. As to the method: (§5) The antimicrobial activity of compound 0089-D on various microorganisms was confirmed by determining minimum inhibitory concentration (MIC) on growth.
(§6) The MIC of compound 0089-D for various microorganisms was determined in a Muller Hinton broth (BBL) containing 0.2% glucose according to the regulations of the Japan Chemotherapy Association (The Essentials of Antibiotics, 4th ed., Tokyo University Press, 1992).
(§7) Each test microorganism was prepared at density of 1×10^6 cfu/ml in the above medium to prepare a test microorganism liquid.
(§8) The test sample (compound 0089-D) was dissolved in methanol and diluted in the above Muller Hinton broth by subjecting it to serial 2-fold dilution starting at the concentration of 1 mg/ml. 180 μl of the test microorganism liquid and 20 μl of the test sample solution were put through a pipette to a 96-well micro-titer plate and incubated at 37° C. 24 hours thereafter, growth was examined by the eye to determine MIC.

Data set [8] has as its system M. flavescens ATCC14474. Kind of data set: Antimicrobial activity, MIC. As to conditions: Mycolicibacterium flavescens; M. flavescens ATCC14474, Muller Hinton broth, 37° C., 24 hours. It counts as cell-based. The method, then: as §5, §6, §7, §8
The test system of data set [9] is M. phlei ATCC11758. Briefly: Antimicrobial activity, MIC. It is filed as cell-based. To be noted: Mycolicibacterium phlei; M. phlei ATCC11758, Muller Hinton broth, 37° C., 24 hours. As to the method: as §5, §6, §7, §8
Data set [10] relates to Micrococcus luteus IFM2066. Briefly: Antimicrobial activity, MIC. It is filed as cell-based. As to conditions: Micrococcus luteus IFM2066, Muller Hinton broth, 37° C., 24 hours. The method, then:
as §5, §6, §7, §8

For data set [11], the system named is Mycobacterium smegmatis ATCC607. Kind of data set: Antimicrobial activity, MIC. It is filed as cell-based. As to conditions: Mycolicibacterium smegmatis; Mycobacterium smegmatis ATCC607, Muller Hinton broth, 37° C., 24 hours. The method, then:
as §5, §6, §7, §8

Data set [12] concerns N. asteroides IFM0319. Kind of data set: Antimicrobial activity, MIC. It counts as cell-based. As to conditions: Nocardia asteroides; N. asteroides IFM0319, Muller Hinton broth, 37° C., 24 hours. The method, then: as §5, §6, §7, §8
Data set [13] has as its system N. brasiliensis IFM0236. Briefly: Antimicrobial activity, MIC. It counts as cell-based. To be noted: N. brasiliensis IFM0236, Muller Hinton broth, 37° C., 24 hours. As to the method: as §5, §6, §7, §8
In data set [14] the test system is N. farcinica IFM0284. Kind of data set: Antimicrobial activity, MIC. It counts as cell-based. As to conditions: Nocardia farcinica; N. farcinica IFM0284, Muller Hinton broth, 37° C., 24 hours. As to the method:
as §5, §6, §7, §8

Data set [15] has as its system N. nova IFM0290. Briefly: Antimicrobial activity, MIC. It counts as cell-based. To be noted: N. nova IFM0290, Muller Hinton broth, 37° C., 24 hours. As to the method:
as §5, §6, §7, §8

Data set [16] deals with N. otitidiscaviarum IFM0239. Kind of data set: Antimicrobial activity, MIC. It counts as cell-based. As to conditions: N. otitidiscaviarum IFM0239, Muller Hinton broth, 37° C., 24 hours. The method, then: as §5, §6, §7, §8
The test system of data set [17] is N. pseudobrasiliensis IFM0624. Briefly: Antimicrobial activity, MIC. It counts as cell-based. To be noted: N. pseudobrasiliensis IFM0624, Muller Hinton broth, 37° C., 24 hours. The method, then:
as §5, §6, §7, §8

Data set [18] concerns Nocardia transvalensis IFM0333. Briefly: Antimicrobial activity, MIC. It is filed as cell-based. As to conditions: Nocardia transvalensis IFM0333, Muller Hinton broth, 37° C., 24 hours. As to the method:
as §5, §6, §7, §8

The subject of data set [19] is Aspergillus niger ATCC40606. Kind of data set: Antimicrobial activity, MIC (fungi). It is filed as cell-based. To be noted: Aspergillus niger ATCC40606, Sabouraud's Dextrose liquid medium, 37° C., 24 hours. The method, then: as §5, §6
(§9) To determine MIC for fungi, Sabouraud's Dextrose liquid medium was used and the density of the test fungi was 1×10^4 cfu/ml.
as §8

The subject of data set [20] is Candida albicans ATCC90028. Kind of data set: Antimicrobial activity, MIC (fungi). It is filed as cell-based. As to conditions: Candida albicans ATCC90028, Sabouraud's Dextrose liquid medium, 37° C., 24 hours. As to the method: as §5, §6, §9, §8
Data set [21] relates to various microorganisms. Briefly: Antimicrobial activity on various microorganisms, overall. It counts as cell-based. To be noted: in words. As to the method: as §5, §6, §7, §9, §8
The test system of data set [22] is Micrococcus luteus. Briefly: Paper disk method, growth inhibition of Micrococcus luteus. It counts as cell-based. To be noted: nutrient agar, 30° C., 24 hours. The method, then:
The resulting culture, 150 L, was filtered through a filter cloth whereby the cells were recovered. The operation of extracting the cells was carried out by adding 20 L methanol. The thus-obtained extract was concentrated and evaporated into dryness in an evaporator. 1 L distilled water was added to 4 g of the dried matter to give a suspension, which was then partitioned and extracted 3 times with 1 L of n-hexane. The n-hexane fraction, 3 L, was concentrated and evaporated into dryness in an evaporator, dissolved in 8 ml of an n-hexane:ethyl acetate mixture (20:1) and subjected to silica gel chromatography (column 6 cm×20 cm). After impurities were eluted with 2 L of an n-hexane : ethyl acetate mixture (20 1), compound 0089-D was eluted with 2 L of an n-hexane:ethyl acetate mixture (10:1). Detection of compound 0089-D in the eluted fraction was carried out using growth inhibitory activity on a test microorganism Micrococcus luteus as the indicator by the following paper disk method.
The eluted fraction was adsorbed onto a paper disk and placed on a nutrient agar medium (Difco) on which M. luteus had been spread, and then incubated at 30° C. for 24 hours.

Data set [23] can be described thus: Solubility. It counts as physicochemical.

≈ marks a conversion by molar mass, not a printed value.

On to `O=c1[nH]cc(F)c(=O)[nH]1` [Compound 5-FU, 5-FU], for which the Susceptibility to antibiotics result in [1] is on record as “negative”.

As usually defined, the IC50 is the concentration needed to halve the response being measured. As a reminder, the MIC is the lowest concentration that inhibits growth of the organism. For `[C-]#[N+]C(=C\c1cn(C)c2ccccc12)/C=C/C(=C)C` [Compound 0089-D], the IC50 came out at 0.25 µg/mL (≈ 1.01 µM) in data set [2], 0.44 µg/mL (≈ 1.77 µM) in data set [3], 0.56 µg/mL (≈ 2.26 µM) in data set [4] and 0.75 µg/mL (≈ 3.02 µM) in data set [5]. Also, the “cytotoxicity on the cultured tumor cells” value in data set [6] is recorded as “strong cytotoxicity”. Also, the MIC in data set [7] is 3.13 µg/mL (≈ 12.6 µM); in [8] it was 3.13 µg/mL (≈ 12.6 µM); in data set [9] it was 1.56 µg/mL (≈ 6.28 µM); in data set [10], 3.13 µg/mL (≈ 12.6 µM); in data set [11], 0.78 µg/mL (≈ 3.14 µM); in data set [12], 12.5 µg/mL (≈ 50.3 µM). The MIC is 25 µg/mL (≈ 101 µM) in data set [13]; 12.5 µg/mL (≈ 50.3 µM) in data set [14]; 1.56 µg/mL (≈ 6.28 µM) in data set [15]; 6.25 µg/mL (≈ 25.2 µM) in data set [16]; 3.13 µg/mL (≈ 12.6 µM) in data set [17]; 3.13 µg/mL (≈ 12.6 µM) in data set [18]. Moreover, the MIC came to 0.39 µg/mL (≈ 1.57 µM) in data set [19] and 25 µg/mL (≈ 101 µM) in data set [20]. In addition, in data set [21], the antimicrobial spectrum result is given as “wide antimicrobial spectrum”. Moreover, the “inhibition zone of growth” value in data set [22] is “inhibition zone of growth of M. luteus”. In addition, the Solubility result in [23] (ether) was “Soluble”; in data set [23] (ethyl acetate), “Soluble”; in data set [23] (hexane), “Slightly soluble”; in data set [23] (methanol), “Soluble”; in [23] (water) it was “Insoluble”.

With `C[C@@H](O)[C@H]1C(=O)N2C(C(=O)O)=C(SCCN=CN)C[C@H]12` [imipenem], the Susceptibility to antibiotics entry in [1] is listed as “negative”.

Consider `NC[C@H]1O[C@H](O[C@H]2[C@H](O)[C@@H](O[C@H]3O[C@H](CO)[C@@H](O)[C@H](N)[C@H]3O)[C@H](N)C[C@@H]2N)[C@H](O)[C@@H](O)[C@@H]1O` [kanamycin], for which the Susceptibility to antibiotics result in data set [1] is listed as “negative”.

As for `NC[C@H]1O[C@H](O[C@H]2[C@H](O)[C@@H](O[C@H]3O[C@H](CO)[C@@H](O)[C@H](N)[C@H]3O)[C@H](N)C[C@@H]2N)[C@H](N)C[C@@H]1O` [tobramycin], the Susceptibility to antibiotics result in [1] was “positive”.
